{
  "source": "patent US9394327B1",
  "about": "“Nucleoside crystals, crystal nucleation and growth control with antifreeze proteins” (The Trustees of California State University, priority 2013, dated 2016)",
  "key": {"[1]": {"test": "Crystal growth of m^5U by evaporation of aqueous solution, no seed crystals, with polypeptide additives", "format": "physicochemical", "experimental": "(§1) We obtained the crystals of m^5U, C, and I, respectively, by evaporation of their aqueous solutions at room temperature. m^5U was known to be crystallized from aqueous ethanol solutions. […] On day 1, each sample vial was first added 600 μL of 400 mM m^5U solution. Then 20 μL of water or polypeptide solutions at certain concentrations were added into each vial. The final m^5U concentration was 387 mM in each vial. The additive/m^5U molar ratios (×10^−5) were varied from 0, 0.04, 0.4, 1.0, 1.2, 3.0, 4.0, 7.8, and 9.0. The vials were gently swirled after the addition and were left open in the air at the room temperature. At least three observations were recorded per day (every 8 hours) until the solutions in all the vials were dry. The experiments were repeated five times (Table 1).\nAll the resulting solids were sent to X-ray crystallography laboratory at the Beckman Institute of California Institute of Technology for analysis. The qualities of the solids for single crystal X-ray diffraction were determined (Table 1). […] The resolution of the data was improved compared with that of previously reported data of m^5U. The crystallographic data of m^5U have been deposited in the Cambridge Database (CCDC) and the CCDC deposit number is 835399.\nPowder X-ray diffraction (PXRD) data were collected at room temperature on a Rigaku Mini Flex II desktop diffractometer using Cu Kα radiation (30 kV, 15 mA) with a 2θ range of 5°-50°, a step size of 0.010°, and a step time of 2 s. Samples were lightly ground by hand using a mortar and pestle. The same amount of the resulting powders was then mounted and analyzed on a front loading sample holder.\nDifferent amounts of DAFP-1 were added directly to m^5U solution to determine the critical ratio of DAFP-1/m^5U."}, "[2]": {"conditions": "copper sulfate pentahydrate aqueous solution, no additive", "quoted_text": "To further test the effect of AFP on different types of compounds, we tested copper sulfate pentahydrate. The crystal grows from copper sulfate pentahydrate aqueous solutions at room temperature. Seventy milligrams of copper sulfate pentahydrate were dissolved in one milliliter of deionized, milli-Q water. The solution was filtered and left in the air for evaporation. In the presence AFPs, the conditions were all the same except DAFP-1 was added to the solution at the molar ratio of 10^−7 to copper sulfate."}, "[3]": {"test": "Stability of m^5U crystal forms left in air at room temperature", "format": "physicochemical", "description": "The only previously known crystalline form of m^5U is its hemihydrate crystal, designated form I, which was crystallized exclusively by evaporation from the supersaturated aqueous solutions. By using DAFP-1 as an additive, remarkably, we were able to control the crystallization of m^5U and discover a new, less thermodynamically and kinetically preferred form, m^5U dihydrate crystal, designated form II. Forms I and II crystals are readily distinguished from each other by their morphology and stability. Form I crystals are needle-like in appearance (FIG. 16(a)) and there was no change (in the appearance, single crystal X-ray diffraction pattern, or DSC profile) of the crystals after being left in air at room temperature for more than 24 months. Form II crystals are block-shaped (FIG. 16(b)) and became white opaque powders/blocks in 2 months. The resulting solids were not suitable for single-crystal X-ray diffraction."}, "[4]": {"test": "Crystallization and crystallization kinetics of m^5U form I and form II from supersaturated solution", "format": "physicochemical", "conditions": "for Day the crystallization completes / Day the crystallization starts: 595 mM m^5U, form I in absence of DAFP-1, form II in presence of DAFP-1 (additive/m^5U 5×10^−6); for Average crystal growth rate: estimated from mass increase of crystals, form I without, form II with DAFP-1; for Crystal morphology of the form: optical micrographs", "experimental": "Supersaturated m^5U aqueous solutions (0.6 M) were made at 30° C. and filtered as soon as possible. Crystals were not grown after the temperature dropped to room temperature for a few days. On day 1, to each sample vial was added 600 μL of 0.6 M m^5U solution, and then 5 μL of water or DAFP solution were added into the vial. The vials were gently swirled after the additions. The resulting m^5U concentration was 595 mM in each vial and additive/m^5U molar ratios (×10^−6) were either 0 or 5. The sample vials were left open in the air at room temperature and three observations at least were recorded per day (every 8 hours) until the solutions in all the vials were dry. The above experiments were repeated five times. Optical micrographs were taken under Nikon SMZ800 microscope with a Nikon Coolpix 5400 when the crystallization completed. Under the above conditions, only form I crystalline m^5U was able to grow in the absence of DAFP-1; however, in the presence of DAFP-1, form II crystalline m^5U was grown exclusively. The kinetics of crystallization of m^5U form I and form II, respectively, was estimated based on the rate of the weight of the occurring crystals and the initial weight of m^5U in the specific vial. All the liquid in the vial was collected gently and the weight of the vial or the vial with crystals was measured. After the measurement, the collected liquid was put back into the vial and the crystallization continued. The weights were measured on an Ohaus Discovery semi-micro analytical balance at 9 am every day until the crystallization finished. The experiments were repeated on three vials and the average values were reported."}, "[5]": {"test": "Crystal growth of I by evaporation of aqueous solution, no seed crystals, with polypeptide additives", "format": "physicochemical", "experimental": "as §1\n(§2) In previous reports, crystals of C were prepared by evaporating of its aqueous ethanol solutions. Here we obtained C crystals by evaporation of its aqueous solution. […] By slowly evaporating its aqueous solution at 20° C., the pure α-form I crystals were obtained. The experimental procedures for C and I were similar to those described above for m^5U, while the concentrations of C and I solutions were 252 mM and 92 mM, respectively, in each sample vial on day 1 and the additive/C molar ratios (×10^−5) were varied from 0, 0.04, 0.4, 1.0, 1.2, 3.0, 4.0, 7.9, and 10.0 and the additive/I molar ratios (×10^−5) were varied from 0, 0.05, 0.5, 1.1, 2.2, 4.4, 8.1, 10.8, and 21.7. Photos of the vials were taken with a Canon EOS 30D camera during the crystallization process and when the process finished. Optical micrographs were taken under Nikon SMZ800 microscope with a Nikon Coolpix 5400 when the crystallization completed. […]\n(§3) Powder X-ray diffraction (PXRD) data were collected at room temperature on a Rigaku Mini Flex II desktop diffractometer using Cu Kα radiation (30 kV, 15 mA) with a 2θ range of 5°-50°, a step size of 0.010°, and a step time of 2 s. […] The same amount of the resulting powders was then mounted and analyzed on a front loading sample holder."}, "[6]": {"test": "Crystal growth of C by evaporation of aqueous solution, no seed crystals, with polypeptide additives", "format": "physicochemical", "experimental": "as §1, §2, §3"}, "[7]": {"test": "DSC thermodynamic stability analysis of m^5U forms", "format": "physicochemical", "experimental": "Thermodynamic Stability Analysis. Both forms of m^5U were analyzed by DSC (FIG. 20). […] The first endotherm associated with water loss is at 139.07° C., whereas the second endotherm ascribed to the melting is at 185.65° C. […] Form II starts losing water and then melts at relatively lower temperatures than those of form I. The enthalpy profiles for both forms are compared in FIG. 21.\nAll experiments were performed with a DSC 1 (Mettler Toledo, Ohio). An indium standard (Mettler Toledo, Ohio) was used to calibrate the instrument. Samples weighed 3-4 mg and were hermetically encapsulated in standard aluminum sample pans with pierced lids to release any pressure build-up during the experiments. The samples were heated from 25 to 200° C. at a rate of 5° C./min."}, "[8]": {"test": "Crystallization of trehalose dihydrate by diffusing ethanol, with DAFP-1", "format": "physicochemical", "conditions": "without additive", "description": "Similarly, we crystallized trehalose dihydrate crystals by diffusing ethanol into the aqueous ethanol solution of trehalose directly. The protein:trehalose molar ratio (×10^−5) was 9.0 in FIG. 24(b) The crystals formed in the presence of DAFP-1 show a dramatic decrease in size as compared to the crystals obtained without additive."}, "[9]": {"conditions": "optical micrographs, no seed crystals, alone or in the presence of the named additive"}},
  "data": [
    {"molecule": "Cc1cn([C@@H]2O[C@H](CO)[C@@H](O)[C@H]2O)c(=O)[nH]c1=O", "note": "[m^5U, 5-methyluridine]", "values": [
      {"measurement": "Crystal quality (suitableness of resulting solids for single crystal x-ray diffraction)", "setting": "[1]; 387 mM m^5U, polypeptide 0 μM", "result": "Yes"},
      {"measurement": "Induction time (day of first appearance of solid)", "setting": "[1]; 387 mM m^5U, polypeptide 0 μM, no seed crystals", "result": 6, "unit": "days"},
      {"measurement": "Morphology of finally achieved m^5U solids", "setting": "[1]; [9]", "result": "Needle-like orthorhombic"}
    ]},
    {"molecule": "O.O.O.O.O.O=S(=O)([O-])[O-].[Cu+2]", "note": "[copper sulfate pentahydrate]", "values": [
      {"measurement": "Appearance of the crystal (time)", "setting": "[2]", "result": 7, "unit": "days"}
    ]},
    {"molecule": "Cc1cn([C@@H]2O[C@H](CO)[C@@H](O)[C@H]2O)c(=O)[nH]c1=O", "note": "[form II, 5-methyluridine]", "values": [
      {"measurement": "Time until crystals became white opaque powders/blocks", "setting": "[3]; in air at room temperature", "result": 2, "unit": "months"},
      {"measurement": "Day the crystallization completes", "setting": "[4]", "result": 15, "unit": "days"},
      {"measurement": "Day the crystallization starts", "setting": "[4]", "result": 6, "unit": "days"},
      {"measurement": "Average crystal growth rate", "setting": "[4]", "result": 10.5, "unit": "% per day"},
      {"measurement": "Crystal morphology of the form", "setting": "[4]", "result": "block-shaped"}
    ]},
    {"molecule": "O=c1[nH]cnc2c1ncn2[C@@H]1O[C@H](CO)[C@@H](O)[C@H]1O", "note": "[I, inosine]", "values": [
      {"measurement": "Crystal quality (suitableness of resulting solids for single crystal x-ray diffraction)", "setting": "[5]; 92 mM I, polypeptide 0 μM", "result": "Yes"},
      {"measurement": "Induction time (day of first appearance of solid)", "setting": "[5]; 92 mM I, polypeptide 0 μM, no seed crystals", "result": 5, "unit": "days"},
      {"measurement": "Morphology of final achieved I solids", "setting": "[5]; [9]", "result": "hair-like"}
    ]},
    {"molecule": "Nc1ccn([C@@H]2O[C@H](CO)[C@@H](O)[C@H]2O)c(=O)n1", "note": "[C, cytidine]", "values": [
      {"measurement": "Crystal quality (suitableness of resulting solids for single crystal x-ray diffraction)", "setting": "[6]; 252 mM C, polypeptide 0 μM", "result": "Yes"},
      {"measurement": "Induction time (day of first appearance of solid)", "setting": "[6]; 252 mM C, polypeptide 0 μM, no seed crystals", "result": 13, "unit": "days"},
      {"measurement": "Morphology of final achieved C solids", "setting": "[6]; [9]", "result": "needle-like"}
    ]},
    {"molecule": "Cc1cn([C@@H]2O[C@H](CO)[C@@H](O)[C@H]2O)c(=O)[nH]c1=O", "note": "[form I, 5-methyluridine]", "values": [
      {"measurement": "Time crystals were stable in air", "setting": "[3]; in air", "result": "at least 2 years"},
      {"measurement": "Time without change (appearance, single crystal X-ray diffraction pattern, DSC profile) of the crystals", "setting": "[3]; left in air at room temperature", "result": "more than 24 months"},
      {"measurement": "Relative thermodynamic stability of the forms", "setting": "[7]; DSC enthalpy profiles", "result": "more thermodynamically stable"},
      {"measurement": "DSC endotherm associated with water loss", "setting": "[7]; heated 25 to 200° C. at 5° C./min", "result": 139.07, "unit": "°C"},
      {"measurement": "Day the crystallization completes", "setting": "[4]", "result": 9, "unit": "days"},
      {"measurement": "Day the crystallization starts", "setting": "[4]", "result": 3, "unit": "days"},
      {"measurement": "Average crystal growth rate", "setting": "[4]", "result": 13.3, "unit": "% per day"},
      {"measurement": "Crystal morphology of the form", "setting": "[4]", "result": "needle-like"}
    ]},
    {"molecule": "OC[C@H]1O[C@H](O[C@H]2O[C@H](CO)[C@@H](O)[C@H](O)[C@H]2O)[C@H](O)[C@@H](O)[C@@H]1O", "note": "[trehalose dihydrate]", "values": [
      {"measurement": "Size of trehalose dihydrate crystals", "setting": "[8]", "result": "1-1.5 mm"}
    ]}
  ]
}
